Test results published in patent US9695155B2, “Herbicidal substituted pyrimidinyloxy benzene compounds” (E. I. DU PONT DE NEMOURS AND COMPANY, priority 2013, dated 2017).

Tests used:
Italian ryegrass [1] = experiment: Test A preemergence; assay type: in vivo, Lolium multiflorum; details: for Plant response rating, Ryegrass, Italian: 0 to 100 scale where 0 is no effect and 100 is complete control
Text: (§1) Seeds of plant species selected from barnyardgrass (Echinochloa crus-galli), kochia (Kochia scoparia), ragweed (common ragweed, Ambrosia elatior), Italian ryegrass (Lolium multiflorum), large (Lg) crabgrass (Digitaria sanguinalis), giant foxtail (Setaria faberii), morningglory (Ipomoea spp.), pigweed (Amaranthus retroflexus), velvetleaf (Abutilon theophrasti), wheat (Triticum aestivum), and corn (Zea mays) were planted into a blend of loam soil and sand and treated preemergence with a directed soil spray using test chemicals formulated in a non-phytotoxic solvent mixture which included a surfactant.
(§2) At the same time, plants selected from these crop and weed species and also blackgrass (Alopecurus myosuroides), and galium (catchweed bedstraw, Galium aparine) were planted in pots containing the same blend of loam soil and sand and treated with postemergence applications of test chemicals formulated in the same manner. Plants ranged in height from 2 to 10 cm and were in the one- to two-leaf stage for the postemergence treatment. Treated plants and untreated controls were maintained in a greenhouse for approximately 10 days, after which time all treated plants were compared to untreated controls and visually evaluated for injury. Plant response ratings, summarized in Table A, are based on a 0 to 100 scale where 0 is no effect and 100 is complete control. A dash (-) response means no test result.

barnyardgrass [2] = experiment: Test B flooded paddy test; assay type: in vivo, Echinochloa crus-galli; details: Flood, 250 g ai/ha; 0 to 100 scale where 0 is no effect and 100 is complete control
Outline: (§3)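 Evaluation is visual, against untreated controls, 13 to 15 days after treatment. Before treatment, plants reached the 2-leaf stage; pots were then flooded 3 cm deep, compound was added to the water, and that level was maintained. Ratings run 0 to 100, with 100 meaning complete control.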

kochia [3] = experiment: Test A postemergence; assay type: in vivo, Kochia scoparia; details: for Plant response rating, Kochia: 0 to 100 scale, 0 no effect, 100 complete control
Outline: (§4)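 Compounds in non-phytotoxic solvent with surfactant applied as soil spray preemergence, or postemergence to plants 2-10 cm at one- to two-leaf stage, in loam/sand. After approximately 10 days in greenhouse, injury rated visually versus untreated controls, 0 (no effect) to 100 (complete control).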

Italian ryegrass [4] = experiment: Test A postemergence; assay type: in vivo, Lolium multiflorum; details: for Plant response rating, Ryegrass, Italian: 0 to 100 scale, 0 no effect, 100 complete control
Outline: as §4

kochia [5] = experiment: Test A preemergence; assay type: in vivo, Kochia scoparia; details: for Plant response rating, Kochia: 0 to 100 scale where 0 is no effect and 100 is complete control
Outline: as §4

blackgrass = experiment: Test A postemergence; assay type: in vivo, Alopecurus myosuroides; details: for Plant response rating, Blackgrass: 0 to 100 scale, 0 no effect, 100 complete control
Text: as §1, §2

ragweed [6] = experiment: Test A postemergence; assay type: in vivo, Ambrosia elatior; details: for Plant response rating, Ragweed: 0 to 100 scale, 0 no effect, 100 complete control
Text: as §1, §2

wheat = experiment: Test A postemergence; assay type: in vivo, Triticum aestivum; details: for Plant response rating, Wheat: 0 to 100 scale, 0 no effect, 100 complete control
Outline: as §4

ragweed [7] = experiment: Test A preemergence; assay type: in vivo, Ambrosia elatior; details: for Plant response rating, Ragweed: 0 to 100 scale where 0 is no effect and 100 is complete control
Text: as §1, §2

Heteranthera limosa = experiment: Test B flooded paddy test; assay type: in vivo; details: Flood, 250 g ai/ha; 0 to 100 scale where 0 is no effect and 100 is complete control
Outline: as §3

giant foxtail [8] = experiment: Test A postemergence; assay type: in vivo, Setaria faberii; details: for Plant response rating, Foxtail, Giant: 0 to 100 scale, 0 no effect, 100 complete control
Outline: as §4

rice = experiment: Test B flooded paddy test; assay type: in vivo, Oryza sativa; details: Flood, 250 g ai/ha; 0 to 100 scale where 0 is no effect and 100 is complete control
Outline: as §3

pigweed [9] = experiment: Test A postemergence; assay type: in vivo, Amaranthus retroflexus; details: for Plant response rating, Pigweed: 0 to 100 scale, 0 no effect, 100 complete control
Outline: as §4

barnyardgrass [10] = experiment: Test A preemergence; assay type: in vivo, Echinochloa crus-galli; details: for Plant response rating, Barnyardgrass: 0 to 100 scale where 0 is no effect and 100 is complete control
Outline: as §4

giant foxtail [11] = experiment: Test A preemergence; assay type: in vivo, Setaria faberii; details: for Plant response rating, Foxtail, Giant: 0 to 100 scale where 0 is no effect and 100 is complete control
Outline: as §4

galium = experiment: Test A postemergence; assay type: in vivo, Galium aparine; details: for Plant response rating, Galium: 0 to 100 scale, 0 no effect, 100 complete control
Text: as §1, §2

corn = experiment: Test A postemergence; assay type: in vivo, Zea mays; details: for Plant response rating, Corn: 0 to 100 scale, 0 no effect, 100 complete control
Outline: as §4

barnyardgrass [12] = experiment: Test A postemergence; assay type: in vivo, Echinochloa crus-galli; details: for Plant response rating, Barnyardgrass: 0 to 100 scale, 0 no effect, 100 complete control
Outline: as §4

pigweed [13] = experiment: Test A preemergence; assay type: in vivo, Amaranthus retroflexus; details: for Plant response rating, Pigweed: 0 to 100 scale where 0 is no effect and 100 is complete control
Outline: as §4

sedge, umbrella = experiment: Test B flooded paddy test; assay type: in vivo, Cyperus difformis; details: Flood, 250 g ai/ha; 0 to 100 scale where 0 is no effect and 100 is complete control
Outline: as §3

[14] = 31 g ai/ha, visual, approximately 10 days
[15] = 125 g ai/ha, 0 to 100 scale where 0 is no effect and 100 is complete control

FCc1cccc(Oc2ncc(Br)cn2)c1-n1cc(I)cn1 [Compound 244]
Plant response rating, Ryegrass, Italian (Italian ryegrass [1]; [14]): 0
Ryegrass, Italian plant response rating (0 to 100 scale) (Italian ryegrass [1]; 125 g ai/ha): 0
Plant response rating, Barnyardgrass (barnyardgrass [2]): 0
Plant response rating, Kochia (kochia [3]; 31 g ai/ha): 20
Plant response rating, Kochia (kochia [3]; 125 g ai/ha): 80
Plant response rating, Ryegrass, Italian (Italian ryegrass [4]; 31 g ai/ha): 0
Plant response rating, Ryegrass, Italian (Italian ryegrass [4]; 125 g ai/ha): 0
Plant response rating, Kochia (kochia [5]; [14]): 0
Kochia plant response rating (0 to 100 scale) (kochia [5]; 125 g ai/ha): 40
Plant response rating, Blackgrass (blackgrass; 31 g ai/ha): 0
Plant response rating, Blackgrass (blackgrass; 125 g ai/ha): 30
Plant response rating, Ragweed (ragweed [6]; 31 g ai/ha): 0
Plant response rating, Ragweed (ragweed [6]; 125 g ai/ha): 0
Plant response rating, Wheat (wheat; 31 g ai/ha): 0
Plant response rating, Wheat (wheat; 125 g ai/ha): 20
Plant response rating, Ragweed (ragweed [7]; [14]): 0
Ragweed plant response rating (0 to 100 scale) (ragweed [7]; 125 g ai/ha): 0
Plant response rating, Ducksalad (Heteranthera limosa): 40
Plant response rating, Foxtail, Giant (giant foxtail [8]; 31 g ai/ha): 0
Plant response rating, Foxtail, Giant (giant foxtail [8]; 125 g ai/ha): 10
Plant response rating, Rice (rice): 0
Plant response rating, Pigweed (pigweed [9]; 31 g ai/ha): 20
Plant response rating, Pigweed (pigweed [9]; 125 g ai/ha): 100
Plant response rating, Barnyardgrass (barnyardgrass [10]; [14]): 0
Barnyardgrass plant response rating (0 to 100 scale, 0 is no effect, 100 is complete control) (barnyardgrass [10]; 125 g ai/ha): 20
Plant response rating, Foxtail, Giant (giant foxtail [11]; [14]): 0
Foxtail, Giant plant response rating (0 to 100 scale) (giant foxtail [11]; 125 g ai/ha): 80
Plant response rating, Galium (galium; 31 g ai/ha): 70
Plant response rating, Galium (galium; 125 g ai/ha): 100
Plant response rating, Corn (corn; 31 g ai/ha): 0
Plant response rating, Corn (corn; 125 g ai/ha): 20
Plant response rating, Barnyardgrass (barnyardgrass [12]; 31 g ai/ha): 0
Plant response rating, Barnyardgrass (barnyardgrass [12]; 125 g ai/ha): 10
Plant response rating, Pigweed (pigweed [13]; [14]): 0
Pigweed plant response rating (0 to 100 scale) (pigweed [13]; 125 g ai/ha): 100
Plant response rating, Sedge, Umbrella (sedge, umbrella): 0

CC(C)Oc1cnn(-c2c(C#N)cccc2Oc2ncc(Cl)cn2)c1 [Compound 149]
Plant response rating, Ryegrass, Italian (Italian ryegrass [1]; [14]): 0
Plant response rating, Ryegrass, Italian (Italian ryegrass [1]; 125 g ai/ha): 20
Plant response rating, Barnyardgrass (barnyardgrass [2]): 0
Plant response rating, Kochia (kochia [3]; 31 g ai/ha): 60
Kochia plant response rating (kochia [3]; [15]): 70
Plant response rating, Ryegrass, Italian (Italian ryegrass [4]; 31 g ai/ha): 0
Ryegrass, Italian plant response rating (Italian ryegrass [4]; [15]): 30
Plant response rating, Kochia (kochia [5]; [14]): 70
Plant response rating, Kochia (kochia [5]; 125 g ai/ha): 100
Plant response rating, Blackgrass (blackgrass; 31 g ai/ha): 50
Blackgrass plant response rating (blackgrass; [15]): 80
Plant response rating, Ragweed (ragweed [6]; 31 g ai/ha): 50
Ragweed plant response rating (ragweed [6]; [15]): 80
Plant response rating, Wheat (wheat; 31 g ai/ha): 0
Wheat plant response rating (wheat; [15]): 0
Plant response rating, Ragweed (ragweed [7]; [14]): 0
Plant response rating, Ragweed (ragweed [7]; 125 g ai/ha): 60
Plant response rating, Ducksalad (Heteranthera limosa): 70
Plant response rating, Foxtail, Giant (giant foxtail [8]; 31 g ai/ha): 20
Foxtail, Giant plant response rating (giant foxtail [8]; [15]): 90
Plant response rating, Rice (rice): 0
Plant response rating, Pigweed (pigweed [9]; 31 g ai/ha): 60
Pigweed plant response rating (pigweed [9]; [15]): 100
Plant response rating, Barnyardgrass (barnyardgrass [10]; [14]): 40
Plant response rating, Barnyardgrass (barnyardgrass [10]; 125 g ai/ha): 90
Plant response rating, Foxtail, Giant (giant foxtail [11]; [14]): 60
Plant response rating, Foxtail, Giant (giant foxtail [11]; 125 g ai/ha): 100
Plant response rating, Galium (galium; 31 g ai/ha): 70
Galium plant response rating (galium; [15]): 100
Plant response rating, Corn (corn; 31 g ai/ha): 0
Corn plant response rating (corn; [15]): 20
Plant response rating, Barnyardgrass (barnyardgrass [12]; 31 g ai/ha): 20
Barnyardgrass plant response rating (barnyardgrass [12]; [15]): 70
Plant response rating, Pigweed (pigweed [13]; [14]): 100
Plant response rating, Pigweed (pigweed [13]; 125 g ai/ha): 100
Plant response rating, Sedge, Umbrella (sedge, umbrella): 65
